Structures are written as SMILES.

The source of these data is ChEMBL document CHEMBL1764955, “The synthesis and evaluation of indolylureas as PKCα inhibitors” (Bioorg Med Chem, 2011).

Test [1] addresses cAMP-dependent protein kinase catalytic subunit beta (Homo sapiens, UniProt P22694). Put plainly: Inhibition of PKA activity using kemptide as a substrate in presence of 50 uM ATP by mass spectrometry.
Test [2] deals with Protein kinase C alpha type (Homo sapiens, UniProt P17252). Put plainly: Inhibition of human PKCalpha activity using neurogranin as a substrate in presence of 50 uM ATP by mass spectrometry.

Usually IC50 stands for the concentration at which inhibition is half-maximal. Take `CN(C)CCCn1cc(NC(=O)Nc2nccc(-c3ccccc3)n2)c2ccccc21`: the IC50 amounted to 23.6 µM in test [1] and 0.095 µM in test [2].
Consider `CCN(CC)CCCn1cc(NC(=O)Nc2cccc(-c3ccccc3)n2)c2ccccc21`, for which the IC50 in test [2] came to 2.68 µM.
Same read-out and setting: the same measure for `CCN(CC)CCCn1cc(NC(=O)Nc2ccnc(-c3ccccc3)n2)c2ccccc21`: 4.81 µM; for `CCN(CC)CCCn1cc(NC(=O)Nc2cncc(-c3ccccc3)n2)c2ccccc21`: 8.07 µM.
